Data taken from US20260041098A1, “POLYMERIC BATCH TO PREPARE AN ANTIMICROBIAL MATERIAL AND AIR FILTER” (IMPORTADORA Y EXPORTADORA JCN LIMITADA, priority 2021, published 2026).

Experiments:
Type in all cases: cell-based
[1] = tested on: E. coli ATCC 25922; assay: Copper oxychloride dilution test
Protocol: (§1) Additionally, a dilution test was performed using a 250,000 ppm ([…]) stock solution of copper oxychloride. A gradient was prepared using aliquots from 2,500 ppm to 100,000 ppm. A 3×10^5 CFU/mL bacterial culture of S. aureus ATCC 6538 and a 1.25×10^6 CFU/mL culture of E. coli ATCC 25922 were added to each solution.

[2] = tested on: S. aureus ATCC 6538; assay: Copper oxychloride dilution test; conditions: 5,000 ppm
Protocol: as §1

[3] = tested on: E. coli ATCC 25922; assay: Copper oxychloride agar diffusion test; conditions: 4,250-125,000 ppm tested, 37° C., 24 hours
Protocol: (§2) An agar diffusion test was conducted for E. coli ATCC 25922 and S. aureus ATCC 6538 cultures. Copper oxychloride was added at different concentrations (4,250 ppm, 8,500 ppm, 17,000 ppm, 32,000 ppm, 60,000 ppm, 125,000 ppm).

[4] = tested on: S. aureus ATCC 6538; assay: Copper oxychloride agar diffusion test; conditions: 4,250-125,000 ppm tested, 37° C., 24 hours
Protocol: as §2

[5] = repeated test, 5,000 ppm (bacterium not named)

[Cl-].[Cu+2].[Cu+2].[OH-].[OH-].[OH-] [copper oxychloride]
% Efficiency ([1]; 2,500 ppm): 96.0% | bacterial growth ([1]; 2,500 ppm): still grew | Final Count ([1]; 2,500 ppm, initial count 1.25 × 10^6 CFU/mL): 5 × 10^4 CFU/mL | bacteria eliminated [1, 5]: 99.9% | bacterial growth [1, 5]: no bacterial growth was observed | % Efficiency [2]: 99.9% | bacterial growth [2]: no growth | Final Count ([2]; initial count 3 × 10^5 CFU/mL): 2 × 10^2 CFU/mL | concentration at which zones of growth inhibition were observed [3]: 17,000 ppm | concentration at which zones of growth inhibition were observed [4]: 17,000 ppm
